Laboratory results taken from ChEMBL document CHEMBL3217737, “Discovery of a highly selective FLT3 kinase inhibitor from phenotypic cell viability profiling” (Medchemcomm, 2013).
pIC50: −log10 of the molar value. Calls of active or inactive are those of the source. The rule behind the calls is not given here.

How the values were obtained:
[1] = target: Platelet-derived growth factor receptor alpha (Homo sapiens) (UniProt P16234); assay: Inhibition of PDGFRalpha (unknown origin) at 10 uM assessed as residual enzyme activity
[2] = target: Mitogen-activated protein kinase 14 (Homo sapiens) (UniProt Q16539); assay: Inhibition of P38alpha (unknown origin) at 10 uM assessed as residual enzyme activity
[3] = target: Vascular endothelial growth factor receptor 2 (Homo sapiens) (UniProt P35968); assay: Inhibition of VEGFR2 (unknown origin) at 10 uM assessed as residual enzyme activity
[4] = target: Mitogen-activated protein kinase 1 (Homo sapiens) (UniProt P28482); assay: Inhibition of ERK2 (unknown origin) at 10 uM assessed as residual enzyme activity
[5] = target: Hepatocyte growth factor receptor (Homo sapiens) (UniProt P08581); assay: Inhibition of c-Met (unknown origin) at 10 uM assessed as residual enzyme activity
[6] = target: Receptor-type tyrosine-protein kinase FLT3 (Homo sapiens) (UniProt P36888); assay: Inhibition of FLT3 (unknown origin) at 10 uM assessed as residual enzyme activity
Sequence of Receptor-type tyrosine-protein kinase FLT3 (Homo sapiens) (P36888 whole entry): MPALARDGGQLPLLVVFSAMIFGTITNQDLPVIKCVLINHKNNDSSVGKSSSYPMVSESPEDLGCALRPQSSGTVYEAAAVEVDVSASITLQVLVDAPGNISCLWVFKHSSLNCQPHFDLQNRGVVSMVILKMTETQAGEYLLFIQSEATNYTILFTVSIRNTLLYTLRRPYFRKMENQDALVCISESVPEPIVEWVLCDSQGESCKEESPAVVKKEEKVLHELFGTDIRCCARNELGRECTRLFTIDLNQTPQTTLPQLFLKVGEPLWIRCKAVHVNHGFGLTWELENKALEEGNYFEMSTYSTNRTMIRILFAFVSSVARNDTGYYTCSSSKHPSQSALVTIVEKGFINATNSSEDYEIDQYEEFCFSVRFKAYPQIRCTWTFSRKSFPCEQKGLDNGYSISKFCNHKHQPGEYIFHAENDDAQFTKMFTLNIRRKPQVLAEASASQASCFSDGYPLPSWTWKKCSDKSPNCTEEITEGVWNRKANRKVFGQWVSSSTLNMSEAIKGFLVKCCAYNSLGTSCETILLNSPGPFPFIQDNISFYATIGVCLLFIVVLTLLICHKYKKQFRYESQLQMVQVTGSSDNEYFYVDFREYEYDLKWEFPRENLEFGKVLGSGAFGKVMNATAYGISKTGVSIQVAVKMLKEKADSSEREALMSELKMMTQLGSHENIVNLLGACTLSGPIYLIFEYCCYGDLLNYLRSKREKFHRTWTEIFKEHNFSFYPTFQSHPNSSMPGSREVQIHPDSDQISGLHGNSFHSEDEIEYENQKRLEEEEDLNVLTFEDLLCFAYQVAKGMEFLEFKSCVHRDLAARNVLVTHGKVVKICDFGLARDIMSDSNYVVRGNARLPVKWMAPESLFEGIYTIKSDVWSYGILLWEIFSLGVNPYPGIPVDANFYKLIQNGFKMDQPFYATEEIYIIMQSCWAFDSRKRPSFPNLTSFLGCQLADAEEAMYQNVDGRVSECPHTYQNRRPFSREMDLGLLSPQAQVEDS

[7] = target: Protein kinase C alpha type (Homo sapiens) (UniProt P17252); assay: Inhibition of PKCalpha (unknown origin) at 10 uM assessed as residual enzyme activity
[8] = target: Serine/threonine-protein kinase Nek4 (Homo sapiens) (UniProt P51957); assay: Inhibition of STK2 (unknown origin) at 10 uM assessed as residual enzyme activity
[9] = target: Tyrosine-protein kinase Lck (Homo sapiens) (UniProt P06239); assay: Inhibition of LCK (unknown origin) at 10 uM assessed as residual enzyme activity
Sequence of Tyrosine-protein kinase Lck (Homo sapiens) (P06239 2-509 limits assumed): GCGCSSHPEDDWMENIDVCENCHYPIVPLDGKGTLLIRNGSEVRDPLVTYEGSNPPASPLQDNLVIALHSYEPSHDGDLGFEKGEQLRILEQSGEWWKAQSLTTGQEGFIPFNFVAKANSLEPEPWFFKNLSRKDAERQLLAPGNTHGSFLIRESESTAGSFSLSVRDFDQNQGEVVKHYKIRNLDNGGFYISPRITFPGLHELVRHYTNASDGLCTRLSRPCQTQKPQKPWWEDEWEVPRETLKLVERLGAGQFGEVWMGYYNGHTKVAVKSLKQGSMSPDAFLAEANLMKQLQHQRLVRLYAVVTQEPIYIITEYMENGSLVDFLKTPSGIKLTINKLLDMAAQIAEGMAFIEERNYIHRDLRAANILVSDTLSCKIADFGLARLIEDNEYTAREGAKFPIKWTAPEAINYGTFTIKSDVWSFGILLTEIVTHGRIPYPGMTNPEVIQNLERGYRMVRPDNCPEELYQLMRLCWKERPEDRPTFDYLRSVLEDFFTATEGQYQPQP

[10] = target: Tyrosine-protein kinase Lyn (Homo sapiens) (UniProt P07948); assay: Inhibition of LYN (unknown origin) at 10 uM assessed as residual enzyme activity
[11] = Cytotoxicity against human U87MG cells assessed as cell viability at 1 uM after 24 hrs by WST1 assay; assay type: functional, U-87MG ATCC; conditions: U-87 MG, read-out: Activity
[12] = target: Insulin receptor (Homo sapiens) (UniProt P06213); assay: Inhibition of IR (unknown origin) at 10 uM assessed as residual enzyme activity
[13] = target: Mitogen-activated protein kinase 11 (Homo sapiens) (UniProt Q15759); assay: Inhibition of P38beta (unknown origin) at 10 uM assessed as residual enzyme activity
[14] = target: Ribosomal protein S6 kinase beta-1 (Homo sapiens) (UniProt P23443); assay: Inhibition of p70S6K (unknown origin) at 10 uM assessed as residual enzyme activity
MDA-MB-231 = assay: Cytotoxicity against human MDA-MB-231 cells assessed as cell viability at 1 uM after 24 hrs by WST1 assay; assay type: functional; conditions: MDA-MB-231, 24 h, read-out: Activity
[15] = target: Receptor-type tyrosine-protein kinase FLT3 (Homo sapiens) (UniProt P36888); assay: Inhibition of FLT3 in human MV4-11 cells assessed as reduction in STAT5 phosphorylation after 12 hrs by Western blot method; assay type: cell-based
[16] = target: Cyclin-dependent kinase 5/CDK5 activator 1 (Homo sapiens) (UniProt Q00535+Q15078); assay: Inhibition of CDK5/p35 (unknown origin) at 10 uM assessed as residual enzyme activity; assay type: protein-complex assay
Sequence of Cyclin-dependent kinase 5/CDK5 activator 1 (Homo sapiens) (Q00535 whole entry): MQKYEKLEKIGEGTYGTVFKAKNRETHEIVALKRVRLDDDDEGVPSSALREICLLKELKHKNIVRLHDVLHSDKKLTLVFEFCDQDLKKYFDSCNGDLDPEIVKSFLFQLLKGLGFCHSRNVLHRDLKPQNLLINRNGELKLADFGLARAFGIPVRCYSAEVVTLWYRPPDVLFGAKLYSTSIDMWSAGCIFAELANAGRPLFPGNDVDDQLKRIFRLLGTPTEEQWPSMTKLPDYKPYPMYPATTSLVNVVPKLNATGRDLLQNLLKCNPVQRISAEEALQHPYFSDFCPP
Sequence of Cyclin-dependent kinase 5/CDK5 activator 1 (Homo sapiens) (Q15078 99-307 partner limits assumed): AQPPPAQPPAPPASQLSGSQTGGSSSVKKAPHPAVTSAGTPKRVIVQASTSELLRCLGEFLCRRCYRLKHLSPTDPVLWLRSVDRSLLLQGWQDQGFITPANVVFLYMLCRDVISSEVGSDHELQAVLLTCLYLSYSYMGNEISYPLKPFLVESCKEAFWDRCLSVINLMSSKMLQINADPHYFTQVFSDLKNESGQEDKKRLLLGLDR

[17] = target: Macrophage colony-stimulating factor 1 receptor (Homo sapiens) (UniProt P07333); assay: Inhibition of FMS (unknown origin) at 10 uM assessed as residual enzyme activity
[18] = target: Serine/threonine-protein kinase PLK1 (Homo sapiens) (UniProt P53350); assay: Inhibition of PLK1 (unknown origin) at 10 uM assessed as residual enzyme activity
[19] = target: Proto-oncogene tyrosine-protein kinase receptor Ret (Homo sapiens) (UniProt P07949); assay: Inhibition of RET (unknown origin) at 10 uM assessed as residual enzyme activity
Sequence of Proto-oncogene tyrosine-protein kinase receptor Ret (Homo sapiens) (P07949 whole entry): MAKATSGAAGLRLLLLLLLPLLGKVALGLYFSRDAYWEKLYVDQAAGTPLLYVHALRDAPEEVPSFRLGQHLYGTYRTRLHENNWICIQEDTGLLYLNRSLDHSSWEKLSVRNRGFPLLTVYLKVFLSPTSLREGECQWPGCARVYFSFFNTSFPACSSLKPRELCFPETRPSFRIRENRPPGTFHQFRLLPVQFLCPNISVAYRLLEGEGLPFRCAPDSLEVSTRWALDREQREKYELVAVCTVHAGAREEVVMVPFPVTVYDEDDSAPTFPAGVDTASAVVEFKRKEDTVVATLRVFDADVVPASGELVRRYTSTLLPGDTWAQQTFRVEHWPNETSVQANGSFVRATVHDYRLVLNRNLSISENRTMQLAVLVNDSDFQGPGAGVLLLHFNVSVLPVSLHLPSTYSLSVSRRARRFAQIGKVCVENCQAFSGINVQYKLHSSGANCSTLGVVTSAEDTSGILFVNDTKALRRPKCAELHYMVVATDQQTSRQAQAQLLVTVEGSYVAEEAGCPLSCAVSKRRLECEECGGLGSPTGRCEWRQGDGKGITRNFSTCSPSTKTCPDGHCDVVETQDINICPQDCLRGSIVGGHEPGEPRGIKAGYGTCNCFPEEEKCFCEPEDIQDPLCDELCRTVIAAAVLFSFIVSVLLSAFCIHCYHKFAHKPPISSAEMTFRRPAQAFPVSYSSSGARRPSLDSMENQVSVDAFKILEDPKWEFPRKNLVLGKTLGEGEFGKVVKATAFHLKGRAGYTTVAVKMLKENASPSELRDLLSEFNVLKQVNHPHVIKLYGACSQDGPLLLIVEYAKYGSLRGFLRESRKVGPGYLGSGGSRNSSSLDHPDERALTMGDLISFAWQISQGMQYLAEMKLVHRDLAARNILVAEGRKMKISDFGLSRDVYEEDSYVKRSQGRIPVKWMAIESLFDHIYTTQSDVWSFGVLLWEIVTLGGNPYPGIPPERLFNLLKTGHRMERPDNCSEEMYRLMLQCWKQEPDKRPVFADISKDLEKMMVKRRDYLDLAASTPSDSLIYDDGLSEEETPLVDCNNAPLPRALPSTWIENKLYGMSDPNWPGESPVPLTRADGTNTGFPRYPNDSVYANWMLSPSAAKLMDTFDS

MV4-11 [20] = assay: Induction of apoptosis in human MV4-11 cells assessed as PARP cleavage at 0.1 to 10 uM after 12 hrs by Western blot method; assay type: functional, cell-based
[21] = target: Receptor-type tyrosine-protein kinase FLT3 (Homo sapiens, UniProt P36888); assay: Inhibition of FLT3 (unknown origin) by kinase hot spot assay
Sequence of Receptor-type tyrosine-protein kinase FLT3 (P36888 whole entry): as the sequence (P36888 whole entry) above

[22] = target: ALK tyrosine kinase receptor (Homo sapiens) (UniProt Q9UM73); assay: Inhibition of ALK (unknown origin) at 10 uM assessed as residual enzyme activity
[23] = target: Mast/stem cell growth factor receptor Kit (Homo sapiens) (UniProt P10721); assay: Inhibition of c-KIT (unknown origin) at 10 uM assessed as residual enzyme activity
Sequence of Mast/stem cell growth factor receptor Kit (Homo sapiens) (P10721 whole entry): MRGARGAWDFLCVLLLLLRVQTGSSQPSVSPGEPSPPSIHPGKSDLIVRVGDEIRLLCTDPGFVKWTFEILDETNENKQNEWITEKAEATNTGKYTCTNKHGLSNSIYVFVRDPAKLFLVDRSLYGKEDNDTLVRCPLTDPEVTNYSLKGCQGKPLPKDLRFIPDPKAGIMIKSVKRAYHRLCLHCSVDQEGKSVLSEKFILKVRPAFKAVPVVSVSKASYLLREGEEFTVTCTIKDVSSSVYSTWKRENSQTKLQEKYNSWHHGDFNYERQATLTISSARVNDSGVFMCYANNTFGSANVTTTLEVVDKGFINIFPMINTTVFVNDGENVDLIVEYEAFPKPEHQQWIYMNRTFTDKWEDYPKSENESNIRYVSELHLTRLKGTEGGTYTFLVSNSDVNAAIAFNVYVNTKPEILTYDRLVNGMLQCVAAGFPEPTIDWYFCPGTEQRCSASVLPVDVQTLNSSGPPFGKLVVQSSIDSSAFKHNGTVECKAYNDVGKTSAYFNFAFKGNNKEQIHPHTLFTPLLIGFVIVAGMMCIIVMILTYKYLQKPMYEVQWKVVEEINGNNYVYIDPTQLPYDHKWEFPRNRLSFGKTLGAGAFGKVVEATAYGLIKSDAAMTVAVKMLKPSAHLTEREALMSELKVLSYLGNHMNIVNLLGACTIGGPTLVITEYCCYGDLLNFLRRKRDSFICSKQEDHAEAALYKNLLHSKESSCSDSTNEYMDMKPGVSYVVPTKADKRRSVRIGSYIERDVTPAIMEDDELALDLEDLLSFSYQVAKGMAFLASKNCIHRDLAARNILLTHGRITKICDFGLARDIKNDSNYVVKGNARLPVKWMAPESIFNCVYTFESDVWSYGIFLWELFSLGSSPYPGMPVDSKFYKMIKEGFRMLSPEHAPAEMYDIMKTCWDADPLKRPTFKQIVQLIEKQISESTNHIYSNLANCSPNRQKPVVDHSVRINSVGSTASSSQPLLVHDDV

[24] = target: Serine/threonine-protein kinase STK11 (Homo sapiens) (UniProt Q15831); assay: Inhibition of LKB1 (unknown origin) at 10 uM assessed as residual enzyme activity
[25] = target: Mitogen-activated protein kinase 8 (Homo sapiens) (UniProt P45983); assay: Inhibition of JNK1 (unknown origin) at 10 uM assessed as residual enzyme activity
HL-60 = assay: Inhibition of ERK phosphorylation in human HL60 cells at 0.1 to 10 uM after 12 hrs by Western blot method; assay type: cell-based
[26] = target: Mitogen-activated protein kinase 3 (Homo sapiens) (UniProt P27361); assay: Inhibition of ERK1 (unknown origin) at 10 uM assessed as residual enzyme activity
[27] = Cytotoxicity against mouse NIH/3T3 cells assessed as cell viability at 1 uM after 24 hrs by WST1 assay; assay type: cell-based, NIH3T3; conditions: read-out: Activity
MV4-11 [28] = assay: Induction of apoptosis in human MV4-11 cells assessed as caspase 3 cleavage at 0.1 to 10 uM after 12 hrs by Western blot method; assay type: functional, cell-based
MV4-11 [29] = assay: Cytotoxicity against human MV4-11 cells assessed as cell viability at 1 uM after 24 hrs by WST1 assay; assay type: functional; conditions: MV4-11, 24 h, read-out: Activity
MV4-11 [30] = assay: Induction of apoptosis in human MV4-11 cells assessed as increase in cleaved caspase-3 level at 0.1 to 10 uM after 12 hrs by Western blot method; assay type: functional, cell-based
[31] = target: Vascular endothelial growth factor receptor 3 (Homo sapiens) (UniProt P35916); assay: Inhibition of VEGFR3 (unknown origin) at 10 uM assessed as residual enzyme activity
MV4-11 [32] = assay: Cytotoxicity against human MV4-11 cells assessed as cell growth inhibition after 24 hrs by WST1 assay; assay type: functional, cell-based
[33] = target: Platelet-derived growth factor receptor beta (Homo sapiens) (UniProt P09619); assay: Inhibition of PDGFRbeta (unknown origin) at 10 uM assessed as residual enzyme activity
[34] = system: RAF proto-oncogene serine/threonine-protein kinase; assay: Inhibition of Raf1 (unknown origin) at 10 uM assessed as residual enzyme activity; conditions: Homo sapiens
[35] = target: Receptor-type tyrosine-protein kinase FLT3 (Homo sapiens) (UniProt P36888); assay: Inhibition of FLT3 phosphorylation in human MV4-11 cells after 4 hrs by Western blot method; assay type: cell-based
[36] = target: Receptor-type tyrosine-protein kinase FLT3 (Homo sapiens) (UniProt P36888); assay: Inhibition of FLT3 in human MV4-11 cells assessed as reduction in ERK phosphorylation after 12 hrs by Western blot method; assay type: cell-based
[37] = Cytotoxicity against rat L6 cells assessed as cell viability at 1 uM after 24 hrs by WST1 assay; assay type: cell-based; conditions: read-out: Activity

- Activity [1]: 93.8%
- Activity [2]: 110%
- Activity [3]: 98.6%
- Activity [4]: 94%
- Activity [5]: 118%
- Activity [6]: 9.5%
- Activity [7]: 84.5%
- Activity [8]: 85.8%
- Activity [9]: 95.2%
- Activity [10]: 86.6%
- Activity [12]: 95%
- Activity [13]: 97.8%
- Activity [14]: 94.1%
- inhibition [15]: Dose-dependent effect
- Activity [16]: 87.2%
- Activity [17]: 102%
- Activity [18]: 108%
- Activity [19]: 83.3%
- pIC50 [21]: 5.89
- Activity [22]: 96.5%
- Activity [23]: 99.2%
- Activity [24]: 101%
- Activity [25]: 101%
- Activity [26]: 95.4%
- Activity [31]: 101%
- Activity [33]: 96.3%
- Activity [34]: 94.9%
- inhibition [35]: Active
- inhibition [36]: Dose-dependent effect
SMILES: COc1ccc(-c2n[nH]c3ncc(-c4ccc(Cl)cc4N)cc23)cc1
- viability at 1 µM [11]: 89%
- viability at 1 µM (MDA-MB-231): 84%
- Activity (MV4-11 [20]): Active
- inhibition (HL-60): inactive
- viability at 24 h, 1 µM [27]: 106%
- Activity (MV4-11 [28]): Active
- viability at 1 µM (MV4-11 [29]): 30%
- Activity (MV4-11 [30]): Dose-dependent effect
- growth inhibition (GI) (MV4-11 [32]): Dose-dependent effect
- pIC50 (MV4-11 [32]; MV4-11, 24 h): 6.23
- viability at 24 h, 1 µM [37]: 107%
